Data on nine molecules can be found in patent publication US8673289B2, “Attenuated uracil auxotroph of an apicomplexan and use thereof” (priority 2007, dated 2014).

For one assay, the system named is cps1 and cps2 mutants. Briefly: pyrimidine dependence of cps1 and cps2 replication and plaque formation. The class given is cell-based, Toxoplasma gondii. The following applies: for rescue of growth rate / replication of cps1 and cps2: relatively low (thymine, thymidine: moderate) concentrations in medium. The source says: However, all of these mutants are somewhat “leaky” in that there was not an absolute growth (replication) dependence on uracil addition to the growth medium for replication. Each of these mutants grows at a moderate (½ of normal) growth rate for the first 2 days following infection of a host cell producing vacuoles that contained 16 to 32 parasites by 3 days post infection. In contrast, RH parasites are lysed out of their primary vacuoles at this time (3 days, >64 parasites). However, the cps mutants slow after 3 days and many parasites never (about ⅓) break out of their primary vacuole. If the primary vacuole breaks, a few parasites can be detected at the site of infection but the infection site always involves a small zone of infection that never forms a visible plaque in a standard 7 day plaque assay. To quantitate growth of these mutants, HFF flasks were inoculated with […] or cps2 parasites (about a multiplicity of infection (MOI) of 1 parasite per 20 HFF cells). After 2 hours of attachment and invasion (all of these mutants have normal attachment and invasion phenotypes as scored by counting percent entered parasites into host cells as a function of time post-inoculation), different concentrations of different pyrimidine compound was added to parallel infected HFF flasks. As a function of time post pyrimidine addition (t=0 hour) the number of parasites per vacuole was scored for 50 vacuoles as described by Fox et al. ((1999) supra). The number of parasite doublings was calculated based on 1 parasite entering each primary vacuole. Thus, 1 doubling=2 parasites per vacuole, 3 doublings=8 parasites per vacuole, and 5 doublings=32 parasites per vacuole. The pyrimidine dependence of cps1 and cps2 replication (doublings of parasites in the vacuole) was plotted graphically. […] The response to thymine and thymidine was additionally informative about the cause of the growth defect in cps1 and cps2. […] This is believed to be caused by the putative defect in the cps1 and cps2 mutants which is a reduced “pool” size of UMP. If UMP pools (ultimately used for RNA and DNA synthesis) are lowered it follows that a resulting decrease in TMP pools is expected since UMP is the precursor of TMP in T. gondii and all other apicomplexan parasites which normally lack TK activity. However, since cps1 and cps2 now express a TK activity carried into the parasite by the p53KOX3-1R plasmid, exemplified by sensitivity of these mutants to ganciclovir (specific to HSV TK), feeding parasites either thymine or thymidine is expected to increase TMP pools. Thus, it appears that moderate levels of thymine or thymidine partially rescue growth of cps1 and cps2 by restoring TMP pools. […] Since the parasite has no mechanism to convert TMP back to UMP there is still a defect in the UMP pool in cps1 and cps2 even with added thymine or thymidine and rescue is never complete. The ability of cps1 and cps2 mutants to form plaques on HFF monolayers in the standard 7 day assay paralleled the pyrimidine dependence of parasite replication in vacuoles.
The cps1 and cps2 mutants were inoculated intraperitoneally (i.p.) into balb/c mice to measure parasite virulence compared to virulent RH parasites. Both mutant cps1 and cps2 had equal virulence as RH parasites in balb/c mice (Jackson Labs), killing all mice within 10 days of i.p. inoculation (group size was four mice per parasite strain). Only 100 parasites (˜50 PFU) of each parasite strain was needed to kill all mice in each group. This pattern of virulence can be understood by re-examining the pyrimidine dependence of cps1 and cps2 growth. Uridine is believed to be the pyrimidine responsible for virulence of cps1 and cps2 in mice. Only 5 μM uridine completely rescues normal plaque size of cps1 and cps2 in vitro. Plasma concentrations of uridine in mice are approximately 5 to 10 μM.

A further assay deals with cps1-1 and cps2-1. The experiment in a line: pyrimidine rescue of cps1-1 and cps2-1 replication and plaque formation. The class given is cell-based, Toxoplasma gondii. The following applies: for rescue of replication (doublings) of cps1-1 and cps2-1: 36-hour replication assay, HFF; for rescue of plaque formation of cps1-1 and cps2-1: plaque assay. The protocol:
No pyrimidine compound at less than 25 μM could rescue plaque formation of cps1-1 or cps2-1. […] Uridine was quite poor at rescue of plaque formation in cps1-1 and cps2-1.
A more detailed growth response to pyrimidine, measured as parasite replications (doublings) was performed for cps1-1 and cps2-1 and compared to the results previously obtained for […]. […] Uridine rescue was poor, with a slow restoration of growth at very high amounts, >400 μM. Deoxyuridine rescue was significant, but again, full growth rate was not restored at any concentration of deoxyuridine. Rescue with uracil was robust, but only in a limited range of concentration. Full restoration of growth rate in cps1-1 and cps2-1 was possible only with uracil added between 200 and 400 μM. […] This phenotype can only be observed in T. gondii pyrimidine auxotroph mutants, not in wild-type parasites with intact de novo pyrimidine synthesis pathways.
The pyrimidine growth dependence of mutant cps1-1 on the pyrimidine salvage pathway was further documented in thymidine interference experiments. Mutant cps1-1 plaques well in 250 μM uracil or deoxyuridine, but not in 1000 μM thymidine. Since thymidine at 1000 μM is known to inhibit approximately 90% of the parasite nucleoside phosphorylase activity specific for cleavage of deoxyuridine (Iltzsch, (1993) J. Euk. Micro. 40:24-28), growth of cps1-1 was tested in combinations of 1000 μM thymidine and 250 μM uracil or 250 μM deoxyuridine. All pyrimidine salvage in T. gondii must pass through uracil and UPRT conversion of uracil to UMP. In contrast, thymidine has no effect on UPRT activity. Thus, if growth of cps1-1 were dependent on deoxyuridine supplementation then replication in this condition may be inhibited by co-supplementing with 1000 μM thymidine. […] Thus, when cps1-1 is grown in deoxyuridine the parasite strictly requires nucleoside phosphorylase activity to cleave deoxyuridine for growth. […] Thus, cps1-1 and cps2-1 rely strictly on pyrimidine salvage enzymes for growth and further, the HFF host cell in vitro cannot supply sufficient pyrimidines for growth of cps1-1 or cps2-1. […] Such potential inhibitors can only be identified using a pyrimidine auxotroph such as provided in the instant invention.
To assess reversion, 10^6 to 10^7 cps1-1 or cps2-1 parasites were periodically inoculated into HFF flasks supplemented with 5 μM uridine. This concentration of uridine is sufficient to rescue the parent strains (cps1 and cps2) of cps1-1 and cps2-1.

Another assay deals with wild-type T. gondii. Briefly: labeling of parasites with [3H]pyrimidines (pyrimidine salvage). The class given is cell-based, Toxoplasma gondii. The following applies: parasites grown in host cells. The protocol:
(§1) Initial experiments primarily involved an enzymatic analysis of drug resistant mutants and the incorporation of various pyrimidine analogs into T. gondii RNA and DNA as an indication of pyrimidine salvage when parasites were grown in either normal host or mutant host cells. All biochemical communications between the parasite and host cells cross the vacuolar membrane which is now known to contain “pores” that permit the passage of nucleobases ranging in molecular mass from 112 daltons up to 244 daltons. The size of the pores is estimated to be approximately 1500 daltons. A T. gondii mutant resistant to 5-fluorodeoxyuridine (FUDR-1) had lost uracil phosphoribosyltransferase (UPRT), an enzyme which is absent in normal host cells (Pfefferkorn (1978) Expt. Parasitol. 44:26-35). […] FUDR-1 mutant parasites were not labeled with [^3H]deoxyuridine. […] FUDR-1 mutant parasites were not labeled with [^3H]uridine. […] FUDR-1 (UPRT knock-out) parasites were not labeled with [^3H]uracil.
Similarly, since uracil only labels the parasite, due to the parasite UPRT, which is absent in the host, the pyrimidine pools of the parasite are also unavailable to the host. Thus, there is no detectable pyrimidine traffic detected between the parasite and host.

For another assay, the system named is FUDR-1 mutant parasites. Briefly: labeling of FUDR-1 (UPRT knock-out) parasites with [3H]pyrimidines. In kind it is cell-based, Toxoplasma gondii. The protocol: as §1
The next assay has as its system mammalian CPSII. As to conditions: hamster CPSII; cited from earlier work.
In a further assay the test system is E. coli CPS. The following applies: cited from earlier work.

On to `Nc1cc[nH]c(=O)n1` [cytosine], for which, in the assay on cps1 and cps2 mutants, the “rescue of growth rate / replication of cps1 and cps2” value is “did not rescue at all”. In the assay with cps1-1 and cps2-1, the “rescue of replication (doublings) of cps1-1 and cps2-1” value is on record as “remained as a single non-replicated parasite”. Besides, the “incorporation of [3H]-labeled pyrimidine into wild-type parasites” value (shortened to “incorporation”) in the assay on wild-type T. gondii is on record as “did not incorporate”.
`Cc1c[nH]c(=O)[nH]c1=O` [thymine]: the “rescue of growth rate / replication of cps1 and cps2” value in the assay with cps1 and cps2 mutants is recorded as “partially rescued”. The “rescue of replication of cps1 and cps2” value in the assay on cps1 and cps2 mutants (very high concentrations) is on record as “did not rescue replication”. Besides, in the assay on cps1-1 and cps2-1, the “rescue of replication (doublings) of cps1-1 and cps2-1” value is “remained as a single non-replicated parasite”; the “rescue of plaque formation of cps1-1 and cps2-1” value is given as “no response was detected”. Also, the “incorporation” value in the assay with wild-type T. gondii is on record as “did not incorporate”.
Regarding `O=c1ccn([C@@H]2O[C@H](CO)[C@@H](O)[C@H]2O)c(=O)[nH]1` [uridine], in the assay with cps1 and cps2 mutants (in vitro), the “uridine concentration that rescues cps1 and cps2 (normal plaque size)” value is 5 µM. Moreover, the “rescue of growth rate / replication of cps1 and cps2” value in the assay on cps1 and cps2 mutants is “completely rescued”. Besides, in the assay with cps1-1 and cps2-1 (5 μM uridine), the “support of growth of cps1-1 or cps2-1” value is given as “insufficient to support any growth”. In the assay on cps1-1 and cps2-1, the “rescue of replication (doublings) of cps1-1 and cps2-1” value is “poor”; the “rescue of plaque formation of cps1-1 and cps2-1” value was “quite poor”. Also, the “uridine concentration giving slow restoration of growth” value in the assay with cps1-1 and cps2-1 (cps1-1, cps2-1) is greater than 400 µM. For the same molecule, the “incorporation” value in the assay on wild-type T. gondii is “incorporated into wild-type parasites”. For the same molecule, the “labeling of FUDR-1 mutant parasites with [3H]pyrimidine” value in the assay with FUDR-1 mutant parasites is listed as “not labeled”.
Consider “H. a. T456A: mammalian (hamster) CPSII with MAPK site mutation T456A”, for which, in the assay on mammalian CPSII, the “Effect on CPS or CPSII” value is listed as “Abolishes MAPK activation”.
On to `O=c1ccn([C@H]2C[C@H](O)[C@@H](CO)O2)c(=O)[nH]1` [deoxyuridine], for which the “rescue of growth rate / replication of cps1 and cps2” value in the assay on cps1 and cps2 mutants is given as “completely rescued”. The “plaque formation of cps1-1” value with cps1-1 and cps2-1 (250 μM supplement) was “plaques well”. Moreover, in the assay on cps1-1 and cps2-1, the “rescue of replication (doublings) of cps1-1 and cps2-1” value is reported as “significant”; the “rescue of plaque formation of cps1-1 and cps2-1” value is listed as “significant growth rescue”. Moreover, the “incorporation” value in the assay with wild-type T. gondii is “incorporated into wild-type T. gondii”. Also, the “labeling of FUDR-1 mutant parasites with [3H]pyrimidine” value with FUDR-1 mutant parasites is “not labeled”.
Regarding “H. a. S1345A: hamster CPSII with regulatory domain serine to alanine mutation”, in the assay with mammalian CPSII, the “Effect on CPS or CPSII” value is recorded as “Reduces PRPP activation”.
Turning to `O=C(O)c1cc(=O)[nH]c(=O)[nH]1` [orotic acid], the “incorporation” value in the assay on wild-type T. gondii is given as “did not incorporate”.
In the case of `Nc1ccn([C@@H]2O[C@H](CO)[C@@H](O)[C@H]2O)c(=O)n1` [cytidine], the “rescue of growth rate / replication of cps1 and cps2” value in the assay with cps1 and cps2 mutants was “completely rescued”. Further, the “rescue of replication (doublings) of cps1-1 and cps2-1” value in the assay with cps1-1 and cps2-1 was “remained as a single non-replicated parasite”. For the same molecule, the “incorporation” value with wild-type T. gondii is on record as “did not incorporate”.

B1: E. c. C269A: E. coli CPS with catalytic triad mutation C269A (protein, UniProt P0A6F1 1-382; P00968 2-1073, looked up, variant C269A)
Carbamoyl phosphate synthase … 1: MIKSALLVLEDGTQFHGRAIGATGSAVGEVVFNTSMTGYQEILTDPSYSRQIVTLTYPHIGNVGTNDADEESSQVHAQGLVIRDLPLIASNFRNTEDLSSYLKRHNIVAIADIDTRKLTRLLREKGAQNGCIIAGDNPDAALALEKARAFPGLNGMDLAKEVTTAEAYSWTQGSWTLTGGLPEAKKEDELPFHVVAYDFGAKRNILRMLVDRGCRLTIVPAQTSAEDVLKMNPDGIFLSNGPGDPAPCDYAITAIQKFLETDIPVFGIALGHQLLALASGAKTVKMKFGHHGGNHPVKDVEKNVVMITAQNHGFAVDEATLPANLRVTHKSLFDGTLQGIHRTDKPAFSFQGHPEASPGPHDAAPLFDHFIELIEQYRKTAK
Carbamoyl phosphate synthase … 2: PKRTDIKSILILGAGPIVIGQACEFDYSGAQACKALREEGYRVILVNSNPATIMTDPEMADATYIEPIHWEVVRKIIEKERPDAVLPTMGGQTALNCALELERQGVLEEFGVTMIGATADAIDKAEDRRRFDVAMKKIGLETARSGIAHTMEEALAVAADVGFPCIIRPSFTMGGSGGGIAYNREEFEEICARGLDLSPTKELLIDESLIGWKEYEMEVVRDKNDNCIIVCSIENFDAMGIHTGDSITVAPAQTLTDKEYQIMRNASMAVLREIGVETGGSNVQFAVNPKNGRLIVIEMNPRVSRSSALASKATGFPIAKVAAKLAVGYTLDELMNDITGGRTPASFEPSIDYVVTKIPRFNFEKFAGANDRLTTQMKSVGEVMAIGRTQQESLQKALRGLEVGATGFDPKVSLDDPEALTKIRRELKDAGADRIWYIADAFRAGLSVDGVFNLTNIDRWFLVQIEELVRLEEKVAEVGITGLNADFLRQLKRKGFADARLAKLAGVREAEIRKLRDQYDLHPVYKRVDTCAAEFATDTAYMYSTYEEECEANPSTDREKIMVLGGGPNRIGQGIEFDYCCVHASLALREDGYETIMVNCNPETVSTDYDTSDRLYFEPVTLEDVLEIVRIEKPKGVIVQYGGQTPLKLARALEAAGVPVIGTSPDAIDRAEDRERFQHAVERLKLKQPANATVTAIEMAVEKAKEIGYPLVVRPSYVLGGRAMEIVYDEADLRRYFQTAVSVSNDAPVLLDHFLDDAVEVDVDAICDGEMVLIGGIMEHIEQAGVHSGDSACSLPAYTLSQEIQDVMRQQVQKLAFELQVRGLMNVQFAVKNNEVYLIEVNPRAARTVPFVSKATGVPLAKVAARVMAGKSLAEQGVTKEVIPPYYSVKEVVLPFNKFPGVDPLLGPEMRSTGEVMGVGRTFAEAFAKAQLGSNSTMKKHGRALLSVREGDKERVVDLAAKLLKQGFELDATHGTAIVLGEAGINPRLVNKVHEGRPHIQDRIKNGEYTYIINTTSGRRAIEDSRVIRRSALQYKVHYDTTLNGGFATAMALNADATEKVISVQEMHAQIK
modifications: mutation in small subunit
Turning to B1, the “Effect on CPS or CPSII” value in the assay with E. coli CPS is “Abolishes GATase activity”.
